# Laboratory results from ChEMBL document CHEMBL2346572, “Discovery of AZD3514, a small-molecule androgen receptor downregulator for treatment of advanced prostate cancer” (Bioorg Med Chem Lett, 2013).
# pIC50, pKi: −log10 of the molar value. Activity calls are given as the source filed them. The rule behind the calls is not given here.
# Assays:
# [1] = Fraction unbound in Han Wistar rat plasma by equilibrium dialysis method; format: ADME, cell-free
# physchem = conditions: phosphate buffer
# [2] = Lipophilicity, log D of the compound at pH 7.4; conditions: buffer
# [3] = Fraction unbound in human plasma by equilibrium dialysis method; format: ADME, cell-free
# Androgen receptor [4] = molecular target: T1, Androgen receptor (Homo sapiens, UniProt P10275); assay: Inhibition of androgen receptor-mediated cellular downregulation in human LNCAP cells assessed as decrease in nuclear receptor level after 20 to 22 hrs by laser-scanning fluorescence microplate cytometeric analysis; format: cell-based
# T1 sequence (P10275 whole entry): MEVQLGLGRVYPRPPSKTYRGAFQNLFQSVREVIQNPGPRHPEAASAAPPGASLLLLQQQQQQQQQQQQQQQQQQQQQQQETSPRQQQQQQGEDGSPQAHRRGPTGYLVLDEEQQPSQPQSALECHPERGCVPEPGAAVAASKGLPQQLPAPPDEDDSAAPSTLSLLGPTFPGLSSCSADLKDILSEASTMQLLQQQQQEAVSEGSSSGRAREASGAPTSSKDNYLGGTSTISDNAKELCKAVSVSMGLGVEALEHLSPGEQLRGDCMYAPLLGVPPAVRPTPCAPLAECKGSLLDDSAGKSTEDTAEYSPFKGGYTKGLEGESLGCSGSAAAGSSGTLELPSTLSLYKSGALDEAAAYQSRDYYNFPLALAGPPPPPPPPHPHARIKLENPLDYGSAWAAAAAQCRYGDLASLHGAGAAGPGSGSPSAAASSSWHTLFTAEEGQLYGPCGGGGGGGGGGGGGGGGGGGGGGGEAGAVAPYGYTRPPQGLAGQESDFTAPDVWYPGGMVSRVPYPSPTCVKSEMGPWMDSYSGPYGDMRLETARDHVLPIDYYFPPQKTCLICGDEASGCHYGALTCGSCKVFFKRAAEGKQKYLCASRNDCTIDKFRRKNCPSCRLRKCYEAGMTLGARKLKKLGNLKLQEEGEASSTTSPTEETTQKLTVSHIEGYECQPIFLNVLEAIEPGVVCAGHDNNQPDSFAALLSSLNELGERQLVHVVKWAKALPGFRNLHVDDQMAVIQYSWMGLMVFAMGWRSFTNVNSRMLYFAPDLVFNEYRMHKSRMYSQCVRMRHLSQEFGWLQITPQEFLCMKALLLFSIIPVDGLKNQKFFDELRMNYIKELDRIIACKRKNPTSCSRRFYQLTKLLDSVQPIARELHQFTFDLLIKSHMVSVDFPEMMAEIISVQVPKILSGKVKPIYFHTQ
# [5] = Intrinsic clearance in human hepatocytes measured per 10^6 cells
# Rattus norvegicus [6] = assay: Antiandrogenic activity in immature castrated Hershberger rat model assessed as inhibition of testosterone propionate-induced seminal vesicle growth at 2 mg/kg, po bid for 7 days; format: functional, organism-based; set-up: dose 2 mg/kg
# [7] = Volume of distribution at steady state in beagle dog at 2 umol/kg, iv and 10 umol/kg, po; format: ADME, organism-based, Canis lupus familiaris; conditions: in vivo, read-out: Vdss
# [8] = Volume of distribution at steady state in Han Wistar rat at 4 umol/kg, iv and 5 umol/kg, po; format: ADME, organism-based; conditions: in vivo, read-out: Vdss
# Androgen receptor [9] = molecular target: T1, Androgen receptor; assay: Displacement of [3H]R1881 from full length androgen receptor in human LNCAP cells; format: cell-based
# [10] = Oral bioavailability in Han Wistar rat at 5 umol/kg; format: ADME, organism-based; conditions: in vivo
# [11] = molecular target: Voltage-gated inwardly rectifying potassium channel KCNH2 (Homo sapiens, UniProt Q12809); assay: Inhibition of human ERG by IonWorks assay
# Sequence of Voltage-gated inwardly rectifying potassium channel KCNH2 (Q12809 whole entry): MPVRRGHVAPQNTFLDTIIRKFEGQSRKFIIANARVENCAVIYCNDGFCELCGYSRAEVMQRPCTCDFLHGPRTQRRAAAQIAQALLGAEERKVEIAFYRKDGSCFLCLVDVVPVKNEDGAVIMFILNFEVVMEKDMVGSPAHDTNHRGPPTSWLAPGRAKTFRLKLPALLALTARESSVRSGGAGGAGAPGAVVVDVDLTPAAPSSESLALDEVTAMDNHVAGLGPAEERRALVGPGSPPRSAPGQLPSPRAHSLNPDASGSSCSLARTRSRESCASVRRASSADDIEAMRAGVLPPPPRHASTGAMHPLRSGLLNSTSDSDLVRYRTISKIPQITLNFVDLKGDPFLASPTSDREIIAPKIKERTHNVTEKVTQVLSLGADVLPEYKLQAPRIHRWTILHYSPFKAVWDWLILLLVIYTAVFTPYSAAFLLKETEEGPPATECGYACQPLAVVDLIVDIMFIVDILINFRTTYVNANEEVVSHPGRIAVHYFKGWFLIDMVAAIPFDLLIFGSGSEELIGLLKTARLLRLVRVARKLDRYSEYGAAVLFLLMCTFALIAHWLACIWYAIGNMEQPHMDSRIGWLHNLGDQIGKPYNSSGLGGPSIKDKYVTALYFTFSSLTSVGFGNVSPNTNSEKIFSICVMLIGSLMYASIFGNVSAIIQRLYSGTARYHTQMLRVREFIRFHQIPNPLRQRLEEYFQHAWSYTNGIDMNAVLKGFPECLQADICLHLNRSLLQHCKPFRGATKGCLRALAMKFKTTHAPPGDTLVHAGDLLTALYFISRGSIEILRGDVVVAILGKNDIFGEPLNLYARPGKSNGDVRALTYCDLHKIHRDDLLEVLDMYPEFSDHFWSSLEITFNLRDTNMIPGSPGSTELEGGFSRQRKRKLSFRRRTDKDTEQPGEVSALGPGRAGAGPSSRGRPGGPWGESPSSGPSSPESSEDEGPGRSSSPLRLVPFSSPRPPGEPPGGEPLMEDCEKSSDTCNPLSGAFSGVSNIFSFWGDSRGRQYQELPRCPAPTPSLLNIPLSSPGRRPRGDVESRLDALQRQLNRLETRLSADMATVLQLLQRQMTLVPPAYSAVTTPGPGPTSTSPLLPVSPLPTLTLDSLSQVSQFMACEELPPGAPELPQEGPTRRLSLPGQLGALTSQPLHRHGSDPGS
# Rattus norvegicus [12] = assay: Antiandrogenic activity in immature castrated Hershberger rat model assessed as inhibition of testosterone propionate-induced seminal vesicle growth at 50 to 100 mg/kg, po bid for 7 days; format: functional, organism-based
# [13] = Clearance in Han Wistar rat at 4 umol/kg, iv and 5 umol/kg, po; format: ADME, organism-based; conditions: in vivo
# [14] = Clearance in beagle dog at 2 umol/kg, iv and 10 umol/kg, po; format: ADME, organism-based, Canis lupus familiaris; conditions: in vivo
# [15] = Oral bioavailability in beagle dog at 10 umol/kg; format: ADME, organism-based, Canis lupus familiaris; conditions: in vivo
# Androgen receptor [16] = molecular target: T2, Androgen receptor (Rattus norvegicus, UniProt P15207); assay: Binding affinity to rat androgen receptor ligand binding domain by fluorescence polarization assay
# T2 sequence (P15207 whole entry): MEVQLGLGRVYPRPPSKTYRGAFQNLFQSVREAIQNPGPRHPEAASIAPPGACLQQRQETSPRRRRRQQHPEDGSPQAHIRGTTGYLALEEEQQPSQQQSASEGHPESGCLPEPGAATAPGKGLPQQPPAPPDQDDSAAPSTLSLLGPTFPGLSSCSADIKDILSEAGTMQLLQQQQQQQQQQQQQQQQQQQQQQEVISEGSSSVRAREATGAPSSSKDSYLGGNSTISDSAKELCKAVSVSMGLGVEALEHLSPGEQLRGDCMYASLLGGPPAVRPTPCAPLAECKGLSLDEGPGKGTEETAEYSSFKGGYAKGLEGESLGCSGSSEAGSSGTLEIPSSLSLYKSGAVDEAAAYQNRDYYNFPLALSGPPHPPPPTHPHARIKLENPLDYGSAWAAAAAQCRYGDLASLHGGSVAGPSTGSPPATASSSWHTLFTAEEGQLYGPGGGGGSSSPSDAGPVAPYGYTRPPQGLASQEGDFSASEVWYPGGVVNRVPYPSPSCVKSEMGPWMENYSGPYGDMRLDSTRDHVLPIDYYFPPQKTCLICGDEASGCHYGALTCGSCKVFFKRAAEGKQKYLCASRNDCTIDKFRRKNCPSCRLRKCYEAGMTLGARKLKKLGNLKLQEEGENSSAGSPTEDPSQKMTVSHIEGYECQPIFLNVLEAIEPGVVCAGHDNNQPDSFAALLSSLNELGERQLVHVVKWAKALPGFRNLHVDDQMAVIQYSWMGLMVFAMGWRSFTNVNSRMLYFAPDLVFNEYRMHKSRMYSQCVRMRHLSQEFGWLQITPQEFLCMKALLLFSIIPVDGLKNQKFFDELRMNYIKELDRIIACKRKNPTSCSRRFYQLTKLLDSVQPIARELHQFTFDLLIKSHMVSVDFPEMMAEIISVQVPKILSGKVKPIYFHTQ
# [17] = Oral bioavailability in Han Wistar rat at 10 umol/kg; format: ADME, organism-based; conditions: in vivo
# [18] = Clearance in Han Wistar rat at 3 umol/kg, iv and 10 umol/kg, po; format: ADME, organism-based; conditions: in vivo
# [19] = Volume of distribution at steady state in Han Wistar rat at 3 umol/kg, iv and 10 umol/kg, po; format: ADME, organism-based; conditions: in vivo, read-out: Vdss
# [20] = Clearance in Han Wistar rat at 20 umol/kg, iv and 50 umol/kg, po; format: ADME, organism-based; conditions: in vivo
# [21] = Volume of distribution at steady state in Han Wistar rat at 20 umol/kg, iv and 50 umol/kg, po; format: ADME, organism-based; conditions: in vivo, read-out: Vdss
# [22] = Oral bioavailability in Han Wistar rat at 50 umol/kg; format: ADME, organism-based; conditions: in vivo
Compound,fraction unbound [1],solubility thermodynamic at 24 h (physchem) [µM],logD [2],fraction unbound [3],pIC50 (Androgen receptor [4]),hepatocyte CLint [5] [µL/min/1e6 cells],pIC50 [11],other results
N#Cc1ccc(CN2CCN(c3ccc4nnc(C(F)(F)F)n4n3)CC2)cc1,0.092,8.4,2.9,0.044,5.82,< 3,,
OC1(c2ccc(F)cc2)CCN(c2ccc3nnc(C(F)(F)F)n3n2)CC1,0.036,,,0.04,,< 3,,
CC(O)(CS(=O)(=O)c1ccc(F)cc1)C(=O)Nc1ccc(C#N)c(C(F)(F)F)c1 (centres undefined),,,,,,,,growth inhibition (GI) (Rattus norvegicus [6]): Active
CC(=O)N1CCN(CCOc2ccc(C3CCN(C4=Nn5c(nnc5C(F)(F)F)CC4)CC3)cc2)CC1 [AZD3514],0.094,577,2.5,0.12,5.75,< 3,< 4.00,Vd [7]: 3.2 L/kg; Vd [8]: 2.1 L/kg; pKi (Androgen receptor [9]): 5.66; bioavailability [10]: 74%; growth inhibition (GI) (Rattus norvegicus [12]): Active; clearance [13]: 6.6 mL/min/kg; clearance [14]: 12 mL/min/kg; bioavailability [15]: > 75%; pKi (Androgen receptor [16]): 5.30
Cn1nccc1CCOc1ccc(C2CCN(c3ccc4nnc(C(F)(F)F)n4n3)CC2)cc1,0.0021,< 0.73,> 4.3,0.0016,6.63,12,4.75,Vd [7]: 2.7 L/kg; bioavailability [17]: 43%; growth inhibition (GI) (Rattus norvegicus [12]): Active; clearance [18]: 22 mL/min/kg; clearance [14]: 9.2 mL/min/kg; bioavailability [15]: 18%; Vd [19]: 2.3 L/kg
Fc1ccc(CN2CCN(c3ccc4nnc(C(F)(F)F)n4n3)CC2)cc1,0.034,,,0.02,,52,,
Fc1cccc(CN2CCN(c3ccc4nnc(C(F)(F)F)n4n3)CC2)c1F,0.018,,,0.017,5.68,22,< 4.00,
OC1(c2cccnc2)CCN(c2ccc3nnc(C(F)(F)F)n3n2)CC1,0.34,100,2.1,0.26,4.97,< 3,4.02,Vd [7]: 1.3 L/kg; clearance [20]: 38 mL/min/kg; Vd [21]: 5.7 L/kg; growth inhibition (GI) (Rattus norvegicus [12]): Active; clearance [14]: 18 mL/min/kg; bioavailability [15]: > 75%; bioavailability [22]: > 75%
CC(=O)N1CCN(CCOc2ccc(C3(O)CCN(c4ccc5nnc(C(F)(F)F)n5n4)CC3)cc2)CC1,0.064,190,2.2,0.17,,,< 4.00,
CC(=O)N1CCN(CCOc2ccc(C3CCN(c4ccc5nnc(C(F)(F)F)n5n4)CC3)cc2)CC1,0.012,,,0.027,6.49,12,4.95,
Fc1ccc(CN2CCN(C3=Nn4c(nnc4C(F)(F)F)CC3)CC2)cc1,0.13,520,2.8,0.12,5.23,3.7,4.53,
